Test [1] relates to liver NK cells. In words: Transactivation of NK cells: liver NK1.1+ CD3- cells after single injection. Format: in vivo, mouse. Particulars: 20 hours after single i.p. injection. The source says:
(§1) Cells were stained with anti NK1.1-PE and anti CD3-FITC and analysed by flow cytometry. NK cells are reported as NK1.1 positive/CD3 negative population. b c Induction of DC maturation and T cell proliferation by αGalCer/sCD1d activated NKT cells in vivo. Splenocytes were isolated after five treatments i.v. with either PBS (control), αGalCer, or αGalCer/sCD1d and cultured for 4 days with GM-CSF and then 3 more days with either PBS (control, white bars), αGalCer (grey bars), or αGalCer/sCD1d (sCD1d, black bars). Cells were then stained with anti CD11c-FITC and biotinylated anti CD40 and Streptavidin-PE to detect double positive mature DCs (c), or with anti NK1.1-PE and anti CD3-FITC to detect CD3 single positive T cells (d) by flow cytometry.
(§2) In absence of a specific antigen: Several reports have described the capacity of iNKT cells to transactivate NK, DC and T cells upon activation with free αGalCer or αGalCer-pulsed dendritic cells (Nieda, M., et al. Blood 103:383-389 (2004); Hermans, I. F., et al. J Immunol 171:5140-5147 (2003); Smyth, M. J., et al. J Exp Med 201:1973-1985 (2005)). […] Markers for DC maturation were also analyzed after 5 days in vitro culture of splenocytes isolated at the end of a systemic treatment, as described in Example 1. […]

Test [2] deals with iNKT cells in PBMC. In words: iNKT frequency in peripheral blood during systemic treatment. In kind it is in vivo, mouse. Particulars: PBMC 3 days after third i.v. injection. As for the experimental part:
FIG. 3: iNKT expansion in blood during systemic treatment with αGalCer loaded recombinant CD1d molecules. Mice were bled after the third injection of either PBS (control) αGalCer (0.4 μg), αGalCer/CD1d-anti-Her2 fusion protein (Fusion, 40 μg), or αGalCer/sCD1d (sCD1d, 20 μg). NKT cells were stained in PBMCs using the CD1d-Tetramer-PE and anti CD3 FITC antibody. a representative dot blot of one mouse from each group. b graph representing several mice per group expressed as CD1d tetramer positive and CD3+ cells as percentage of total PBMC.
Increased frequency of iNKT cells during systemic treatment: normally iNKT cells are not detectable in mouse peripheral blood as shown on FIG. 3. In contrast, they became clearly detectable upon systemic treatment with recombinant αGalCer/CD1d molecules, whereas there was no change with αGalCer alone. FIG. 3a gives representative dot plots of FACS staining with CD1d-tetramer+anti-CD3 on PBMC 3 days after the third injection with either PBS, free αGalCer, αGalCer/CD1d-anti HER2, or αGalCer/sCD1d (five mice per group, i.v., injection every 3 days).

For test [3], the system named is B16-HER2 cells. In words: Precoating experiment, lung metastases of B16-HER2 cells. As to conditions: cells pre-incubated with agent, injected i.v. into naïve mice. In kind it is in vivo, mouse.
Protocol: Quantification of lung metastasis. Metastatic nodule surface area was measured on 2560×1920 pixels photographs of the whole organs, taken on an Zeiss STEMI SV11 dissection microscope (Carl Zeiss, Jena, Germany) equipped with a PROGRES-C10plus Color Camera (Jenoptik, Jena, Germany). Each image was analyzed with the ImageJ program (rsb.info.nih.gov/ij/) using a k-means clustering algorithm (plugin available on ij-plugins.sourceforge.net). Images were segmented into 9 segments cluster tolerance 1×10−4, randomization seed: 48) and the appropriate segments were selected based on the color of the metastasis reaching the surface of the organ. The area of the sum of selected color segments was expressed as percentage of the area occupied by the lungs. Both sides of the lung were analyzed. This method takes into account both the number and the size of the tumor nodules.
For test [4], the system named is splenocytes, CD11c+ CD40+ DC. The test can be described thus: DC maturation (CD11c+ CD40+) in splenocyte cultures of treated mice. In kind it is cell-based, mouse. Particulars: in vitro stimulation of splenocytes isolated after systemic treatment.
Text: as §1, §2

For test [5], the system named is splenocytes, CD11c+ CD40+ DC. The test can be described thus: Mature DC (CD11c+ CD40+) in splenocyte cultures of OVA-immunized mice. In kind it is cell-based, mouse. As to conditions: same cultures, following restimulation. On the procedure:
FIG. 8: αGalCer loaded sCD1d acts as a strong adjuvant for the expansion of antigen-specific T cells upon active immunization. a kinetics of expansion of H-2K^b/OVA specific CTLs. Mice were primed with 200 μg ovalbumin either as such (i.v.) or with MONTANIDE™ adjuvant (3:7 ratio, s.c.) or with 1 μg αGalCer or 20 μg αGalCer/sCD1d (i.v.). Mice were bled every 5-7 days and PBMC were stained with H-2K^b/oVA tetramer+anti-CD8. Results were expressed as tetramer+ and CD8+ […] as a percentage of total CD8+ T cells. Mice were boosted with OVA peptide (20 μg) on day 22 employing the same adjuvants and route of injection as for primary immunization. b Ten days later, mice were sacrificed and splenocytes were cultured another five days either with no stimuli or with the same stimuli and adjuvants as for the in vivo boost. Frequency of OVA specific T cells was measured as in a. c The presence of mature DC in the same cultures as in b was analyzed by surface staining with anti CD11c and anti CD40 antibodies.
Together with active OVA immunization: An adjuvant effect has previously been attributed to free αGalCer and its potential use in vaccination has been proposed (Silk, J. D., et al. J Clin Invest 114:1800-1811 (2004)). […]

With `CCCCCCCCCCCCCCCCCCCCCCCCCC(=O)N[C@@H](CO[C@H]1O[C@H](CO)[C@H](O)[C@H](O)[C@H]1O)[C@H](O)[C@H](O)CCCCCCCCCCCCCC` [αGalCer, α-galactosylceramide, reference compound], the “NK cell frequency (NK1.1+ CD3- population)” value in test [1] is “increased”. Also, the “Frequency of iNKT cells in peripheral blood” value in test [2] is recorded as “no change”. Further, the “Lung metastases of precoated B16-HER2 cells” value in test [3] was “completely inhibited tumor development”. Further, the “Percentage of CD11c+ CD40+ double positive cells” value in test [4] is on record as “had no effect in any of the mice”.

B1: αGalCer/sCD1d: soluble monomeric mouse β2m-CD1d, His-tagged, loaded with αGalCer (protein)
chain: IQKTPQIQVYSRHPPENGKPNILNCYVTQFHPPHIEIQMLKNGKKIPKVEMSDMSFSKDWSFYILAHTEFTPTETDTYACRVKHASMAEPKTVYWDRDMGGGGSGGSGSGGGSEAQQKNYTFRCLQMSSFANRSWSRTDSVVWLGDLQTHRWSNDSATISFTKPWSQGKLSNQQWEKLQHMFQVYRVSFTRDIQELVKMMSPKEDYPIEIQLSAGCEMYPGNASESFLHVAFQGKYVVRFWGTSWQTVPGAPSWLDLPIKVLNADQGTSATVQMLLNDTCPLFVRGLLEAGKSDLEKQEKPVAWLSSVPSSADGHRQLVCHVSGFYPKPVWVMWMRGDQEQQGTHRGDFLPNADETWYLQATLDVEAGEEAGLACRVKHSSLGGQDIILYWSSGSGGHHHHHH
Turning to B1, the “NK cell frequency (NK1.1+ CD3- population)” value in test [1] is reported as “increased”. For the same molecule, in test [5], the “Frequency of mature DC (CD11c+CD40+)” value was “increased frequency of mature DC”. In addition, the “Percentage of CD11c+ CD40+ double positive cells” value in test [4] was “increased”.

For the origin of these results see patent publication US9603922B2, “Modulation of NKT cell activity with antigen-loaded CD1d molecules” (VACCINEX, INC., priority 2007, dated 2017).
